The source of these data is ChEMBL document CHEMBL1143906, “TIE-2/VEGF-R2 SAR and in vitro activity of C3-acyl dihydroindazolo[5,4-a]pyrrolo[3,4-c]carbazole analogs” (Bioorg Med Chem Lett, 2008).

SMILES strings stand for the structures.

As a reminder, the IC50 is the point on the concentration scale where inhibition reaches its midpoint. As a reminder, the Vd is the apparent volume that relates the amount in the body to the concentration in plasma or blood. A low value points to confinement near the circulation. As usually defined, the clearance is a measure of how efficiently the substance is removed, as volume per time. The low end stands for inefficient removal, the high end for efficient removal. Broadly, the AUC(0-inf) is the area under the concentration-time curve extrapolated to infinity. A higher AUC(0-inf) goes with more exposure. As a reminder, the AUC(0-t) is exposure summed from dosing to a finite time, without extrapolation to infinity. As a reminder, the solubility is the concentration that dissolves in the medium under given conditions. A low value points to little dissolved substance. The term Tmax denotes the time at which the peak concentration occurs. As a reminder, the half-life is the time in which the quantity being followed falls by half. A higher half-life goes with slow loss. The term EC50 denotes the concentration needed to bring the measured effect to its halfway point. What is called bioavailability is the share of a dose that reaches the circulation, judged against a reference dose that is usually intravenous. Read a low bioavailability as poor availability. The term Cmax denotes the highest concentration seen after dosing. The inhibition is the change of the read-out against control, counted positive when it falls. Read a low inhibition as a weak effect. A word on the AUC: it is the area under the concentration-time curve, a measure of exposure. High values mean more exposure, low ones less exposure.

Data set [1] deals with T1, Angiopoietin-1 receptor (Homo sapiens, UniProt Q02763). Nature of the data set: Inhibition of TIE2.
Data set [2] deals with Vascular endothelial growth factor receptor 2 (Homo sapiens, UniProt P35968). Nature of the data set: Inhibition of VEGFR2.
The nature of data set [3]: Volume of distribution in rat at 1 mg/kg, iv. The conditions noted are these: in vivo. Set-up: dose 1 mg/kg, route intravenous. Format: ADME, organism-based.
The nature of data set [4]: Clearance in rat at 1 mg/kg, iv. It is filed as ADME, organism-based. The arrangement: dose 1 mg/kg, route intravenous. The note with it: in vivo.
For data set [5], the system named is HUVEC. The experiment in a line: Inhibition of angiopoietin 1-induced chemotaxis of HUVEC cells. The conditions noted are these: Homo sapiens. It is filed as functional, cell-based.
A short description of data set [6]: AUC (0 to infinity) in rat at 5 mg/kg, po. Format: ADME, organism-based. The arrangement: time infinity, dose 5 mg/kg, route oral. The conditions noted are these: plasma.
A short description of data set [7]: AUC (0 to t) in rat at 5 mg/kg, po. Format: ADME, organism-based. The arrangement: dose 5 mg/kg, route oral. The note with it: plasma.
Data set [8] is described as follows: Aqueous solubility at pH 2.0. Format: physicochemical. The conditions noted are these: aqueous medium.
Data set [9] can be described thus: Tmax in rat at 5 mg/kg, po. Set-up: dose 5 mg/kg, route oral. It is filed as ADME, organism-based. The note with it: in vivo.
The test system of data set [10] is Aorta. The experiment in a line: Toxicity in rat aortic ring. It is filed as tissue-based.
Data set [11] in a line: AUC (0 to t) in rat at 1 mg/kg, iv. It is filed as ADME, organism-based. Set-up: dose 1 mg/kg, route intravenous. The note with it: plasma.
For data set [12], the system named is HUVEC. Nature of the data set: Cytotoxicity against human HUVEC cells. It is filed as cell-based.
A short description of data set [13]: AUC (0 to infinity) in rat at 1 mg/kg, iv. It is filed as ADME, organism-based. Set-up: time infinity, dose 1 mg/kg, route intravenous. The conditions noted are these: plasma.
A short description of data set [14]: Half life in rat at 1 mg/kg, iv. It is filed as ADME, organism-based. The arrangement: dose 1 mg/kg, route intravenous. The conditions noted are these: in vivo.
Data set [15] concerns Aorta. Nature of the data set: Ex vivo antiangiogenic activity in rat aortic ring explant assessed as inhibition of microvessel growth after 8 days. It is filed as functional, tissue-based. The conditions noted are these: 192 h.
Data set [16] in a line: Bioavailability in rat at 5 mg/kg, po. It is filed as ADME, organism-based. The conditions noted are these: in vivo.
Data set [17] can be described thus: Cmax in rat at 5 mg/kg, po. Format: ADME, organism-based. The arrangement: dose 5 mg/kg, route oral. The note with it: in vivo.
Data set [18] in a line: Aqueous solubility at pH 7.4. Format: physicochemical. The note with it: aqueous medium.
In data set [19] the target is Vascular endothelial growth factor receptor 2 (Mus musculus, UniProt P35918). Nature of the data set: Inhibition of mouse VEGFR2 autophosphorylation in NIH3T3 cell.
Data set [20] has as its target T1, Angiopoietin-1 receptor. Nature of the data set: Inhibition of TIE2 at 300 nM.
For data set [21], the target named is T1, Angiopoietin-1 receptor. The experiment in a line: Inhibition of TIE2 at 1000 nM.
The nature of data set [22]: AUC in rat. It is filed as ADME, organism-based. The note with it: plasma.

Vascular endothelial growth factor receptor 2 (Homo sapiens, UniProt P35968), sequence (P35968 whole entry): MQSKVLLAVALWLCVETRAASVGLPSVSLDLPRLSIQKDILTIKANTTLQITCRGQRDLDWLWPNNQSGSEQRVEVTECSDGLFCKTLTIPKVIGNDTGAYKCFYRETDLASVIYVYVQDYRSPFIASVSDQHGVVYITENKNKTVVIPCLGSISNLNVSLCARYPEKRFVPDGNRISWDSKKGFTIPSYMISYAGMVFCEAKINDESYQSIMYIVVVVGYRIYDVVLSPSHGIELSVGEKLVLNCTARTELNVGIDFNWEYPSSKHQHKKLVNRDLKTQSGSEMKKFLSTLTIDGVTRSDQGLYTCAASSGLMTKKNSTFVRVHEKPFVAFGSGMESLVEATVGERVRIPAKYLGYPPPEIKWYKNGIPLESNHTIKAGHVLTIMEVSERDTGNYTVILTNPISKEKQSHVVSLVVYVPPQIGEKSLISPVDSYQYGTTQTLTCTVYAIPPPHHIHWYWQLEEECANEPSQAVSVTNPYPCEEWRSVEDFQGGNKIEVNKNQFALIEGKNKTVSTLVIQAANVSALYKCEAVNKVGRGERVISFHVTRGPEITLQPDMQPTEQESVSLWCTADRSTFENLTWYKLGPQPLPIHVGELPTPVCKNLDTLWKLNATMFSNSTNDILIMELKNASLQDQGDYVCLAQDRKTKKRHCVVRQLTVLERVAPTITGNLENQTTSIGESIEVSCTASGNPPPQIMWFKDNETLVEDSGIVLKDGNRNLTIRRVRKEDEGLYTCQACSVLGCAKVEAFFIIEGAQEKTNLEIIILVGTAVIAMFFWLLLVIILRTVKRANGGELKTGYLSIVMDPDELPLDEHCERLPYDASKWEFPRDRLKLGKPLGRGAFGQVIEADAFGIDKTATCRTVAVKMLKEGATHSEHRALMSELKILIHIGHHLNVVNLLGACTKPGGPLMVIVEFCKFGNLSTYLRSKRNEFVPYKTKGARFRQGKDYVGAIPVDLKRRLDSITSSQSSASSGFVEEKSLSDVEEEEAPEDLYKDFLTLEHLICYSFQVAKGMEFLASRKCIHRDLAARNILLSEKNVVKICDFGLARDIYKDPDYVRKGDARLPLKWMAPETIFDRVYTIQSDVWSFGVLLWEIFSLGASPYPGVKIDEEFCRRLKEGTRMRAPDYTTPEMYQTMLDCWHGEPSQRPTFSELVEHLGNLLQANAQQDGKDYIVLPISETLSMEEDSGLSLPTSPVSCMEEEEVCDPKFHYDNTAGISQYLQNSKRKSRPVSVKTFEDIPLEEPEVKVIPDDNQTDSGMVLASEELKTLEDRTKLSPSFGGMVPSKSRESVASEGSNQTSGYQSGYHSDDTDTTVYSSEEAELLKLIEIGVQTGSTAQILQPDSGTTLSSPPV
T1 sequence (Q02763 whole entry): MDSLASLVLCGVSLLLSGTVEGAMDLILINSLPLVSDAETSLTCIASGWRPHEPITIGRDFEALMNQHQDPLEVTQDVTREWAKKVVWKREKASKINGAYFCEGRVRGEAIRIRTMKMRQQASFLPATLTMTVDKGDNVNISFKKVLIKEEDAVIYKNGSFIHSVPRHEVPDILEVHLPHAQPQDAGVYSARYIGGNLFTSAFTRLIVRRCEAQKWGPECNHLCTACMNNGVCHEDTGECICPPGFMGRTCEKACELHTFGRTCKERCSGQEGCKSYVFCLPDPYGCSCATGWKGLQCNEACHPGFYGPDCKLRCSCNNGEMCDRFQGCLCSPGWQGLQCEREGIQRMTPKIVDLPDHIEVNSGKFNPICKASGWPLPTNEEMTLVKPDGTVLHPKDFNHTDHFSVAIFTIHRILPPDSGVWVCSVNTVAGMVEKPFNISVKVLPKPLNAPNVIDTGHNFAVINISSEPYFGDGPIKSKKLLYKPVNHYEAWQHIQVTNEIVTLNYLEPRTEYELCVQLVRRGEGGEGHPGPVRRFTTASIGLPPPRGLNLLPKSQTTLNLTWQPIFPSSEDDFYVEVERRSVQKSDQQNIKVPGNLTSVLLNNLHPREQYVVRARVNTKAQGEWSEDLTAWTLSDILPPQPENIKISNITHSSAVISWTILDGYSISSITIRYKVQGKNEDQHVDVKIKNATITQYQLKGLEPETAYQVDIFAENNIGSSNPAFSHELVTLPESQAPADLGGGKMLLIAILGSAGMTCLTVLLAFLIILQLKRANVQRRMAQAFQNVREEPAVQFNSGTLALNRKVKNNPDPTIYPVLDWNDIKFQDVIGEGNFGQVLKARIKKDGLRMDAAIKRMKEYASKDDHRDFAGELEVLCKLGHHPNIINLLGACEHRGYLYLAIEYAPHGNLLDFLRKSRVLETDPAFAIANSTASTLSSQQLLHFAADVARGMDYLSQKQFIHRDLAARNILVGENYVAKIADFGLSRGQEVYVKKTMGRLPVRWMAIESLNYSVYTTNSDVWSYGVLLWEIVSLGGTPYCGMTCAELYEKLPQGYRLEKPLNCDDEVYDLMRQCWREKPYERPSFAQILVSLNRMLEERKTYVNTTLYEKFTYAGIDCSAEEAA
Vascular endothelial growth factor receptor 2 (Mus musculus, UniProt P35918), sequence (P35918 whole entry): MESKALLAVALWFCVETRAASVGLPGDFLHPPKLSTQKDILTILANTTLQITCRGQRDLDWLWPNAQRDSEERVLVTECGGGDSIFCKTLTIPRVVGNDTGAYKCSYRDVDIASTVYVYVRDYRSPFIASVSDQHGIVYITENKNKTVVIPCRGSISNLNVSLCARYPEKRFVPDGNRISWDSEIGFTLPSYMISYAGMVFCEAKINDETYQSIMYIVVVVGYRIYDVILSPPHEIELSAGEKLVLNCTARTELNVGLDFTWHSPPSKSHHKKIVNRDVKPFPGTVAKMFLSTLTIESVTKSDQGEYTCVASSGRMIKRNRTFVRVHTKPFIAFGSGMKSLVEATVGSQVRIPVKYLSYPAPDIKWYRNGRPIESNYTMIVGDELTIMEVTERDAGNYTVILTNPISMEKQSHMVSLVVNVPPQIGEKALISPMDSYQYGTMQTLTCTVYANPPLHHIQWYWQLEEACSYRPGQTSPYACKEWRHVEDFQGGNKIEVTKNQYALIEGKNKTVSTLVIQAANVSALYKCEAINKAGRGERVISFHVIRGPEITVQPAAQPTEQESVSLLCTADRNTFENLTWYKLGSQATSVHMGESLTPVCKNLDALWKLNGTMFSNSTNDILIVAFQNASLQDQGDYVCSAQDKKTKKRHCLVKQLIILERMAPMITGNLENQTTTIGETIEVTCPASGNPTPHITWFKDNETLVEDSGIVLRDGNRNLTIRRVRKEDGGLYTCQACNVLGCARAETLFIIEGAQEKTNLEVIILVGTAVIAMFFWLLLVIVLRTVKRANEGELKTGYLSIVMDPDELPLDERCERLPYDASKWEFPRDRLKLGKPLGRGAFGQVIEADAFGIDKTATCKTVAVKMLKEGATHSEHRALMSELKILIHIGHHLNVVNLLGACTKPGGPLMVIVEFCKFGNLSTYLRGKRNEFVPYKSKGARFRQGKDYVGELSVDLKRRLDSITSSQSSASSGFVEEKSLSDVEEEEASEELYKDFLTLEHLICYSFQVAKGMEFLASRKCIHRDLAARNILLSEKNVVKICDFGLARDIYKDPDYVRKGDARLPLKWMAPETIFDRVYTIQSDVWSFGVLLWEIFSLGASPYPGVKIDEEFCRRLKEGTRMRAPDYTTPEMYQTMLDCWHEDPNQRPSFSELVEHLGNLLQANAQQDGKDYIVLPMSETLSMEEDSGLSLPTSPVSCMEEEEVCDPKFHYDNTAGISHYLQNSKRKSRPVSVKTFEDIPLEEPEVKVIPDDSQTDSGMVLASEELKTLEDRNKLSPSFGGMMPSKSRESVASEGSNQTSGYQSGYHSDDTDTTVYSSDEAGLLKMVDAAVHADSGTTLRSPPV

As for `CCn1c2ccccc2c2c3c(c4c(c21)CCc1nn(C)cc1-4)C(=O)NC3`, the IC50 against Angiopoietin-1 receptor [1] was found to be 1100 nM; in [2] it was 15 nM.
For `CC(C)Cn1c2ccc(C(=O)c3ccoc3)cc2c2c3c(c4c(c21)CCc1nn(C)cc1-4)C(=O)NC3`, the results for the 50% inhibitory concentration (IC50) (against Angiopoietin-1 receptor [1]; in [2]) were 58 nM and 8 nM, respectively.
Consider `Cn1cc2c(n1)CCc1c-2c2c(c3c1[nH]c1ccccc13)CNC2=O`, for which the values for the 50% inhibitory concentration (IC50) (against Angiopoietin-1 receptor [1]; in data set [2]) were 1360 nM and 16 nM, respectively.
As to `CC(C)Cn1c2ccc(C(=O)c3ccsc3)cc2c2c3c(c4c(c21)CCc1nn(C)cc1-4)C(=O)NC3`, the IC50 against Angiopoietin-1 receptor [1] stood at 63 nM; in data set [2], 13 nM.
Regarding `CC(C)Cn1c2ccc(C(=O)c3sccc3Cl)cc2c2c3c(c4c(c21)CCc1nn(C)cc1-4)C(=O)NC3`, the Vd in data set [3] is 1.4 L/kg. In addition, in data set [4], the clearance was found to be 12 mL/min/kg. Also, the Activity result in the data set with HUVEC [5] is “Dose-dependent effect”; with Aorta [10], “Non-toxic”; in the data set with HUVEC [12] it was “Non-toxic”. For the same compound, the total exposure AUC(0-inf) in data set [6] came to 5140 ng·h/mL; in data set [13] it was 1490 ng·h/mL. For the same compound, the AUC(0-t) is 3330 ng·h/mL in [7] and 1440 ng·h/mL in [11]. For the same compound, the solubility in data set [8] and in data set [18] was below 1 µg/mL each time. The Tmax in data set [9] came out at 3.33 h. In addition, the figures for the IC50 (on Angiopoietin-1 receptor [1]; in data set [2]; in data set [19]) were 13 nM, 7 nM and 10 nM, respectively. The half-life in data set [14] was 1.35 h. Further, in the data set with Aorta [15], the EC50 turned out to be 20 nM. The bioavailability in [16] turned out to be 69%. In data set [17], this compound displayed a peak concentration (Cmax) of 842 ng/mL.
In the case of `CCn1c2ccc(C(=O)c3cccs3)cc2c2c3c(c4c(c21)CCc1nn(C)cc1-4)C(=O)NC3`, the IC50 at Angiopoietin-1 receptor [1] was found to be 43 nM; in data set [2] it was 1 nM.
In the case of `CCCCn1c2ccc(C(C)=O)cc2c2c3c(c4c(c21)CCc1nn(C)cc1-4)C(=O)NC3`, the inhibition against Angiopoietin-1 receptor [20] is 50%. Further, the figures for the IC50 (against Angiopoietin-1 receptor [1]; in [2]) were 300 nM and 26 nM, respectively.
In the case of `CCCn1c2ccccc2c2c3c(c4c(c21)CCc1nn(C)cc1-4)C(=O)NC3`, the IC50 was determined as 136 nM against Angiopoietin-1 receptor [1] and 16 nM in data set [2].
For the compound `Cn1cc2c(n1)CCc1c-2c2c(c3c1[nH]c1ccc(C(=O)c4cccs4)cc13)CNC2=O`, the concentration for half-maximal inhibition (IC50) at Angiopoietin-1 receptor [1] was 136 nM; in data set [2], 2 nM.
As to `CC(=O)c1ccc2c(c1)c1c3c(c4c(c1n2CC(C)C)CCc1nn(C)cc1-4)C(=O)NC3`, the values for the IC50 (on Angiopoietin-1 receptor [1]; in data set [2]) were 83 nM and 21 nM, respectively.
Consider `CC(C)OCc1ccc2c(c1)c1c3c(c4c(c1n2CCCOC(=O)CN(C)C)Cc1ccccc1-4)C(=O)NC3` [CEP-7055], for which the IC50 stood at 1360 nM against Angiopoietin-1 receptor [1] and 16 nM in data set [2].
The like results for `CC(C)Cn1c2ccccc2c2c3c(c4c(c21)CCc1nn(C)cc1-4)C(=O)NC3` were, in that order, 372 nM and 17 nM.
In the same order, the values of `CCCn1c2ccc(C(=O)c3cccs3)cc2c2c3c(c4c(c21)CCc1nn(C)cc1-4)C(=O)NC3` are 26 nM and 5 nM.
With `CC(C)Cn1c2ccc(C(=O)c3ccco3)cc2c2c3c(c4c(c21)CCc1nn(C)cc1-4)C(=O)NC3`, the half-inhibitory concentration (IC50) on Angiopoietin-1 receptor [1] came out at 72 nM; in data set [2] it was 4 nM.
For the compound `CCCn1c2ccc(C(C)=O)cc2c2c3c(c4c(c21)CCc1nn(C)cc1-4)C(=O)NC3`, the values for the IC50 (on Angiopoietin-1 receptor [1]; in [2]) were 272 nM and 3 nM, respectively.
For `Cc1csc(C(=O)c2ccc3c(c2)c2c4c(c5c(c2n3CC(C)C)CCc2nn(C)cc2-5)C(=O)NC4)c1`, the IC50 on Angiopoietin-1 receptor [1] is 43 nM; in data set [2], 11 nM; in data set [19], above 50 nM.
Consider `CC(=O)c1ccc2[nH]c3c4c(c5c(c3c2c1)CNC5=O)-c1cn(C)nc1CC4`, for which the IC50 was above 1000 nM against Angiopoietin-1 receptor [1] and 35 nM in [2]. This compound also returned an inhibition at Angiopoietin-1 receptor [21] of 28%.
Consider `CC(=O)c1ccc2c(c1)c1c3c(c4c(c1n2C)CCc1nn(C)cc1-4)C(=O)NC3`, for which the IC50 at Angiopoietin-1 receptor [1] was above 10000 nM; in [2], 10 nM.
With `CCn1c2ccc(C(C)=O)cc2c2c3c(c4c(c21)CCc1nn(C)cc1-4)C(=O)NC3`, the results for the IC50 (against Angiopoietin-1 receptor [1]; in data set [2]) were 1000 nM and 13 nM, respectively. At Angiopoietin-1 receptor [21], the inhibition worked out at 50%.
`CC(=O)c1ccc2c(c1)c1c3c(c4c(c1n2C(C)C)CCc1nn(C)cc1-4)C(=O)NC3`: the IC50 on Angiopoietin-1 receptor [1] turned out to be 726 nM; in data set [2], 75 nM.
`CC(C)Cn1c2ccc(C(=O)c3sccc3Br)cc2c2c3c(c4c(c21)CCc1nn(C)cc1-4)C(=O)NC3`: the clearance in data set [4] was 138 mL/min/kg. The half-inhibitory concentration (IC50) against Angiopoietin-1 receptor [1] was 15 nM; in data set [2], 25 nM; in data set [19], below 10 nM. Further, the AUC in data set [22] worked out at 123 ng·h/mL.
As to `CC(C)Cn1c2ccc(C(=O)c3cccs3)cc2c2c3c(c4c(c21)CCc1nn(C)cc1-4)C(=O)NC3`, the Vd in data set [3] worked out at 0.52 L/kg. For the same compound, in data set [4], the clearance was 2.36 mL/min/kg. Also, the Activity entry in the data set on HUVEC [5] is “Dose-dependent effect”; in the data set with Aorta [10], “Non-toxic”; with HUVEC [12], “Non-toxic”. In addition, the AUC(0-inf) amounted to 4130 ng·h/mL in data set [6] and 6650 ng·h/mL in [13]. Besides, the exposure AUC(0-t) came out at 2820 ng·h/mL in data set [7] and 5680 ng·h/mL in data set [11]. Further, the solubility in [8] and in data set [18] was below 1 µg/mL in each case. Further, the Tmax in data set [9] was 4 h. Also, the IC50 against Angiopoietin-1 receptor [1] is 20 nM; in data set [2] it was 6 nM; in data set [19] it was 10 nM. Also, the half-life in data set [14] is 2.32 h. For the same compound, the half-maximal effective concentration (EC50) with Aorta [15] was found to be 20 nM. The compound also displayed a bioavailability in [16] of 12%. The concentration in data set [17] peaked (Cmax) at 638 ng/mL.
In turn, `Cc1ccsc1C(=O)c1ccc2c(c1)c1c3c(c4c(c1n2CC(C)C)CCc1nn(C)cc1-4)C(=O)NC3` displayed a clearance in [4] of 72 mL/min/kg. Further, the values for the IC50 (against Angiopoietin-1 receptor [1]; in data set [2]; in [19]) were 5 nM, 10 nM and below 10 nM, respectively. Moreover, the area under the curve (AUC) in data set [22] amounted to 261 ng·h/mL.
On to `CC(C)n1c2ccc(C(=O)c3cccs3)cc2c2c3c(c4c(c21)CCc1nn(C)cc1-4)C(=O)NC3`, for which the IC50 stood at 24 nM on Angiopoietin-1 receptor [1] and 15 nM in [2].
